Assay results published in patent US20110130380A1, “Heteroaryl Kinase Inhibitors” (priority 2009, published 2011).

Target: Cdk9/cyclinT1 (Homo sapiens, UniProt P50750)
Assay: Cdk9/cyclinT1 IMAP Protocol (fluorescence polarization kinase assay)
Conditions: Cdk9_cyclinT1_IC50, generated using one of the two Cdk9/cyclinT1 assays (IMAP or Alpha Screen), not specified per value; ATP 6 uM

Chain of Cdk9/cyclinT1 (P50750 whole entry): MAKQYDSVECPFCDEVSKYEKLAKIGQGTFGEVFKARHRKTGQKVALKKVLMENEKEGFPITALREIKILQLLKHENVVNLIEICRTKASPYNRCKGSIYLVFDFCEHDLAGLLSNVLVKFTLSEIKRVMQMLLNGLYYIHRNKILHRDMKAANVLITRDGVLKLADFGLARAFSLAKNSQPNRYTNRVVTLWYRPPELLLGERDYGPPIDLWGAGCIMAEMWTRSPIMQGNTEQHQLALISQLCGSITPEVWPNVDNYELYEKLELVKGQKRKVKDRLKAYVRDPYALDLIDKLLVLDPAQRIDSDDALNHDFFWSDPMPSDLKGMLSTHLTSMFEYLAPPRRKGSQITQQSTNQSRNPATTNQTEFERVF
Chain of Cdk9/cyclinT1 (O60563 whole entry partner): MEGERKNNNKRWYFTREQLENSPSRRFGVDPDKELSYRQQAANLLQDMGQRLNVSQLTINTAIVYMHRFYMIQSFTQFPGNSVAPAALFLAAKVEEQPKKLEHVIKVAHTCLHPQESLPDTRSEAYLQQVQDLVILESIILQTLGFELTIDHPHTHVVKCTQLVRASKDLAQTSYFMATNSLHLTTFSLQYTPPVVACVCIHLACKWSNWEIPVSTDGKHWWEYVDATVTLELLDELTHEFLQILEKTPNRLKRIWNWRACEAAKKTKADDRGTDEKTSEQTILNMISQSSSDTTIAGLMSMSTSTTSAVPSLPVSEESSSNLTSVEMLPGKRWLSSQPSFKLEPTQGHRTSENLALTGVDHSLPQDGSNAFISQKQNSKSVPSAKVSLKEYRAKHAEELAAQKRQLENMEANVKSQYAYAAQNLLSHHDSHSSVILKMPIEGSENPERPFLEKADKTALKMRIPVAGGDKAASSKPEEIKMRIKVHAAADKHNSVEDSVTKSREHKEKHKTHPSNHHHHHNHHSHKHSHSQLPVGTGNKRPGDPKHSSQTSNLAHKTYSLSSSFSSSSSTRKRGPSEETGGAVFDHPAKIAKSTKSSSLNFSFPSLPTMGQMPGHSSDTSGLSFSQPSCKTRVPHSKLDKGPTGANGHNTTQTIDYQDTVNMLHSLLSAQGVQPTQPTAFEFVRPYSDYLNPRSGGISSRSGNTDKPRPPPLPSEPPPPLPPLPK

Question: With `Cc1ncc(-c2cc(NC(=O)[C@@H]3CCCNC3)ncc2Cl)cc1NCC1CCOCC1` [Example 311, (R)-Piperidine-3-carboxylic acid {5′-chloro-6-methyl-5-[(tetrahydro-pyran-4-ylmethyl)-amino]-[3,4′]bipyridinyl-2′-yl}-amide] as the compound, how does the IC50 read?
Answer: 103 nM

Question: With `O=C(Nc1cc(-c2cc(NCC3CCOCC3)cnc2Cl)c(Cl)cn1)[C@@H]1CCCNC1` [Example 312, (R)-Piperidine-3-carboxylic acid {2,5′-dichloro-5-[(tetrahydro-pyran-4-ylmethyl)-amino]-[3,4′]bipyridinyl-2′-yl}-amide] as the compound, how does the IC50 read?
Answer: < 8 nM

Question: With `CC(C)C(=O)Nc1cc(-c2cc(NCC3CCOCC3)cnc2Cl)c(Cl)cn1` [Example 313, N-{2,5′-Dichloro-5-[(tetrahydro-pyran-4-ylmethyl)-amino]-[3,4′]bipyridinyl-2′-yl}-isobutyramide] as the compound, how does the IC50 read?
Answer: < 8 nM

Question: Which IC50 does the source give for `O=C(Nc1cc(-c2cc(NCC3CCOCC3)cnc2Cl)c(Cl)cn1)[C@H]1CNCCO1` [Example 314, (R)-Morpholine-2-carboxylic acid {2,5′-dichloro-5-[(tetrahydro-pyran-4-ylmethyl)-amino]-[3,4′]bipyridinyl-2′-yl}-amide] here?
Answer: 3 nM

Question: For `CC1(C)CC(CNc2cnc(Cl)c(-c3cc(NC(=O)[C@H]4CNCCO4)ncc3Cl)c2)CCO1` (stereo partly drawn) [Example 315, (R)-Morpholine-2-carboxylic acid {2,5′-dichloro-5-[(2,2-dimethyl-tetrahydro-pyran-4-ylmethyl)-amino]-[3,4′]bipyridinyl-2′-yl}-amide], which IC50 is on record?
Answer: 4 nM

Question: For `O=C(Nc1cc(-c2cc(NCC3CCOCC3)cnc2Cl)c(Cl)cn1)C1CNCCOC1` (stereo not shown) [Example 316, [l,4]Oxazepane-6-carboxylic acid {2,5′-dichloro-5-[(tetrahydro-pyran-4-ylmethyl)-amino]-[3,4′]bipyridinyl-2′-yl}-amide], which IC50 is on record?
Answer: 6 nM

Tested on: neointima formation
Assay: not given
Conditions: rats; cited from earlier work

Question: Which “inhibition of neointima formation” value does the source give for `COc1ccc(CNc2nc(N(CCO)CCO)nc3c2ncn3C(C)C)cc1` [CVT-313] here?
Answer: greater than 80%
